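96-well plates; 48 h exposure; 5 concentrations. Endpoints by linear interpolation between flanking doses. Not reached: highest tested concentration assigned. GI50 marks 50% less growth. TGI: concentration producing complete growth inhibition.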
Experiments:
Experiment in all cases: growth of human tumour cells (NCI), 48 h
[1] = test system: 786-0 renal
[2] = test system: A498 renal
[3] = test system: A549 NSCLC
[4] = test system: ACHN renal
[5] = test system: BT-549 breast
[6] = test system: CAKI-1 renal
[7] = test system: COLO 205 colon
[8] = test system: DU-145 prostate
[9] = test system: EKVX NSCLC
[10] = test system: HCC-2998 colon
[11] = test system: HCT-116 colon
[12] = test system: HCT-15 colon
[13] = test system: HOP-62 NSCLC
[14] = test system: HOP-92 NSCLC
[15] = test system: HS 578T breast
[16] = test system: HT29 colon
[17] = test system: IGROV1 ovarian
[18] = test system: K-562 leukemia
[19] = test system: KM12 colon
[20] = test system: M14 melanoma
[21] = test system: MALME-3M melanoma
[22] = test system: MCF7 breast
[23] = test system: MDA-MB-231 breast
[24] = test system: MDA-MB-435
[25] = test system: MDA-N
[26] = test system: MOLT-4 leukemia
[27] = test system: NCI-H23 lung
[28] = test system: NCI-H460 lung
[29] = test system: NCI-H522 lung
[30] = test system: NCI/ADR-RES ovarian
[31] = test system: OVCAR-3 ovarian
[32] = test system: OVCAR-4 ovarian
[33] = test system: OVCAR-5 ovarian
[34] = test system: OVCAR-8 ovarian
[35] = test system: PC-3 prostate
[36] = test system: RPMI-8226 leukemia
[37] = test system: RXF 393 renal
[38] = test system: SF-268 CNS
[39] = test system: SF-295 CNS
[40] = test system: SK-MEL-2 melanoma
[41] = test system: SK-MEL-28 melanoma
[42] = test system: SK-MEL-5 melanoma
[43] = test system: SK-OV-3 ovarian
[44] = test system: SNB-19 CNS
[45] = test system: SNB-75 CNS
[46] = test system: SW-620 colon
[47] = test system: TK-10 renal
[48] = test system: U251 CNS
[49] = test system: UACC-257 melanoma
[50] = test system: UACC-62 melanoma
[51] = test system: UO-31 renal
[52] = test system: CCRF-CEM leukemia
[53] = test system: HL-60(TB) leukemia
[54] = test system: LOX IMVI melanoma
[55] = test system: NCI-H226 lung
[56] = test system: SF-539 CNS
[57] = test system: SN12C renal
[58] = test system: SR leukemia
[59] = test system: T-47D breast

For `CC(=O)ON(OC(C)=O)c1ccc(C)cc1`, the TGI [1] was greater than 100 µM, the TGI [2] was greater than 100 µM and the TGI [3] was greater than 100 µM. The TGI [4] was greater than 100 µM, the TGI [5] was greater than 100 µM and the TGI [6] was greater than 100 µM. It also gave a TGI [7] greater than 100 µM, a TGI [8] greater than 100 µM and a TGI [9] greater than 100 µM. For the same molecule, the TGI [10] was greater than 100 µM, the TGI [11] was greater than 100 µM and the TGI [12] was greater than 100 µM. It also gave a TGI [13] greater than 100 µM, a TGI [14] greater than 100 µM and a TGI [15] greater than 100 µM. It also gave a TGI [16] greater than 100 µM, a TGI [17] greater than 100 µM and a TGI [18] greater than 100 µM. For the same molecule, the TGI [19] was greater than 100 µM, the TGI [20] was greater than 100 µM and the TGI [21] was greater than 100 µM. It also gave a TGI [22] greater than 100 µM, a TGI [23] greater than 100 µM and a TGI [24] greater than 100 µM. For the same molecule, the TGI [25] was greater than 100 µM, the TGI [26] was greater than 100 µM and the TGI [27] was greater than 100 µM. For the same molecule, the TGI [28] was greater than 100 µM, the TGI [29] was greater than 100 µM and the TGI [30] was greater than 100 µM. It also gave a TGI [31] greater than 100 µM, a TGI [32] greater than 100 µM and a TGI [33] greater than 100 µM. It also gave a TGI [34] greater than 100 µM, a TGI [35] greater than 100 µM and a TGI [36] greater than 100 µM. The TGI [37] was greater than 100 µM, the TGI [38] was greater than 100 µM and the TGI [39] was greater than 100 µM. For the same molecule, the TGI [40] was greater than 100 µM, the TGI [41] was greater than 100 µM and the TGI [42] was greater than 100 µM. The TGI [43] was greater than 100 µM, the TGI [44] was greater than 100 µM and the TGI [45] was greater than 100 µM. It also gave a TGI [46] greater than 100 µM, a TGI [47] greater than 100 µM and a TGI [48] greater than 100 µM. For the same molecule, the TGI [49] was greater than 100 µM, the TGI [50] was greater than 100 µM and the TGI [51] was greater than 100 µM.

Work on `CCNC(=O)C[C@@H]1N=C(c2ccc(Cl)cc2)c2cc(OC)ccc2-n2c(C)nnc21` yielded a GI50 [1] of 16.4 µM, a TGI [1] greater than 100 µM and a GI50 [2] of 1.73 µM. For the same molecule, the TGI [2] was greater than 69.3 µM, the GI50 [3] was 13.1 µM and the TGI [3] was greater than 100 µM. For the same molecule, the GI50 [4] was 7.4 µM, the TGI [4] was greater than 100 µM and the GI50 [5] was greater than 28.1 µM. It also gave a TGI [5] greater than 100 µM, a GI50 [6] of 0.584 µM and a TGI [6] greater than 100 µM. It also gave a GI50 [52] of 7.44 µM, a TGI [52] greater than 100 µM and a GI50 [7] of 0.994 µM. The TGI [7] was greater than 100 µM, the GI50 [8] was greater than 100 µM and the TGI [8] was greater than 100 µM. For the same molecule, the GI50 [9] was greater than 100 µM, the TGI [9] was greater than 100 µM and the GI50 [10] was 5.77 µM. It also gave a TGI [10] greater than 100 µM, a GI50 [11] of 5.73 µM and a TGI [11] greater than 100 µM. The GI50 [12] was 3.77 µM, the TGI [12] was greater than 100 µM and the GI50 [53] was 0.275 µM. For the same molecule, the TGI [53] was 38.1 µM, the GI50 [13] was 2.1 µM and the TGI [13] was greater than 100 µM. The GI50 [14] was 0.548 µM, the TGI [14] was greater than 100 µM and the GI50 [15] was 0.796 µM. For the same molecule, the TGI [15] was greater than 41.5 µM, the GI50 [16] was 1.02 µM and the TGI [16] was greater than 100 µM. It also gave a GI50 [17] of 12.2 µM, a TGI [17] greater than 100 µM and a GI50 [18] of 4.18 µM. It also gave a TGI [18] greater than 100 µM, a GI50 [19] of 27.1 µM and a TGI [19] greater than 100 µM. The GI50 [54] was 0.844 µM, the TGI [54] was greater than 100 µM and the GI50 [20] was 2.02 µM. For the same molecule, the TGI [20] was greater than 100 µM, the GI50 [21] was 3.49 µM and the TGI [21] was greater than 100 µM. It also gave a GI50 [22] of 0.532 µM, a TGI [22] greater than 100 µM and a GI50 [23] of 2.76 µM. The TGI [23] was greater than 100 µM, the GI50 [24] was 1.75 µM and the TGI [24] was greater than 100 µM. The GI50 [26] was greater than 44.2 µM, the TGI [26] was greater than 100 µM and the GI50 [55] was greater than 32.8 µM. It also gave a TGI [55] greater than 100 µM, a GI50 [27] of 13.5 µM and a TGI [27] greater than 100 µM. The GI50 [28] was greater than 100 µM, the TGI [28] was greater than 100 µM and the GI50 [29] was 2.08 µM. The TGI [29] was greater than 100 µM, the GI50 [30] was greater than 56 µM and the TGI [30] was greater than 100 µM. The GI50 [31] was 6.29 µM, the TGI [31] was greater than 100 µM and the GI50 [32] was 5.93 µM. The TGI [32] was greater than 100 µM, the GI50 [33] was greater than 100 µM and the TGI [33] was greater than 100 µM. The GI50 [34] was 8.9 µM, the TGI [34] was greater than 100 µM and the GI50 [35] was 3.15 µM. It also gave a TGI [35] greater than 100 µM, a GI50 [36] of 0.367 µM and a TGI [36] of 5.74 µM. The GI50 [37] was 8.9 µM, the TGI [37] was greater than 100 µM and the GI50 [38] was greater than 53.6 µM. It also gave a TGI [38] greater than 100 µM, a TGI [39] greater than 100 µM and a GI50 [56] of 2.33 µM. The TGI [56] was greater than 100 µM, the GI50 [40] was 3.28 µM and the TGI [40] was greater than 100 µM. It also gave a GI50 [41] of 11.2 µM, a TGI [41] greater than 100 µM and a TGI [42] greater than 100 µM. It also gave a GI50 [43] of 2.37 µM, a TGI [43] greater than 100 µM and a GI50 [57] of 15.5 µM. For the same molecule, the TGI [57] was greater than 100 µM, the GI50 [44] was 5.11 µM and the TGI [44] was greater than 100 µM. It also gave a GI50 [45] of 0.034 µM, a TGI [45] of 1.6 µM and a GI50 [58] of 0.567 µM. It also gave a TGI [58] greater than 100 µM, a GI50 [46] greater than 31 µM and a TGI [46] greater than 100 µM. For the same molecule, the GI50 [59] was 2.9 µM, the TGI [59] was greater than 100 µM and the GI50 [47] was 0.645 µM. For the same molecule, the TGI [47] was greater than 53.8 µM, the GI50 [48] was greater than 67.8 µM and the TGI [48] was greater than 100 µM. For the same molecule, the GI50 [49] was 2 µM, the TGI [49] was greater than 100 µM and the GI50 [50] was 0.618 µM. The TGI [50] was greater than 100 µM, the GI50 [51] was 0.659 µM and the TGI [51] was greater than 100 µM.

From PubChem BioAssay (NCI)
